Data on eight compounds can be found in US6872727B1, “Polycyclic pyrimidine -2,4(1H,3H)-diones with functionalized alkyl residues at the 1- and/or 3-position(s); methods for their synthesis and pharmaceutical preparation” (Privates Institut fur Biomedizinische Forschung und Beratung, priority 1999, dated 2005).

The target in assay [1] is T1, human matrix metalloproteinase-2 (MMP-2; gelatinase A) (Homo sapiens, UniProt P08253).
T1 construct: to prepare the enzymatically active mature form of the enzyme; endogenous in cells; host or cells: human dermal fibroblasts (secreted into culture supernatant)
T1 sequence (P08253 110-660): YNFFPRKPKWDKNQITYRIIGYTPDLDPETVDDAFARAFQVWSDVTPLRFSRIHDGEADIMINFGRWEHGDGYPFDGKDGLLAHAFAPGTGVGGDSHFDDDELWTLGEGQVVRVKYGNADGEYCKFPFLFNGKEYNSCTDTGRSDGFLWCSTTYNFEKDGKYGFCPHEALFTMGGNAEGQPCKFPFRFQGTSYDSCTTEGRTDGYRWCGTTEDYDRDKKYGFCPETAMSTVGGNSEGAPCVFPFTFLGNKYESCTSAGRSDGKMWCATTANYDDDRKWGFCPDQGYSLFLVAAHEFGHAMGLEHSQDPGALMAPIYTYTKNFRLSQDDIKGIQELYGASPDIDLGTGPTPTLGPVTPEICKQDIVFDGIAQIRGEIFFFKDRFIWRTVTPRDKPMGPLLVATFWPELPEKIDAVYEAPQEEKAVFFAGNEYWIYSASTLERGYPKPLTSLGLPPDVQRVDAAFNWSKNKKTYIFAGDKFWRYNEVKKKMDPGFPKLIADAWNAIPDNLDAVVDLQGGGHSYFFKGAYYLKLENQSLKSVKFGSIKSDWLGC
The assay can be described thus: Inhibition of human matrix metalloproteinase-2 (gelatinase A). It is filed as biochemical. As to conditions: trypsin-activated MMP-2 from human dermal fibroblast culture supernatant; read-out: MMP-2 (50% inhibition). From the text: MMP-2 is easily prepared by standard procedures from the culture medium of cultivated human fibroblasts in reasonable quantities, and is therefore readily available. […] A screening system based on the measurement of the proteolytic activity of MMP-2 was developed to analyse the inhibitory effects of the various inhibitors described in Table 1.
To this end, human dermal fibroblasts were obtained and maintained in culture using standard methods. The cell-free culture supernatant containing the secreted pro-MMP-2 was treated with trypsin. The trypsin was inactivated with the specific active-site serine proteinase inhibitor Nα-p-tosyl-L-lysine-chloromethylketone (TLCK), and the active MMP-2 was partially purified by gel filtration on Sepharose 4B. The isolated MMP-2 was identified and characterized by the use of a commercially available immunoassay.
A simple nonradioactive assay was developed to measure MMP-2 activity using gelatin as a substrate that allows both a large number of samples to be analysed in parallel and to generate kinetic data. Partially purified MMP-2 was incubated with a suitable dilution of gelatin under standardized conditions (time, buffer, pH, temperature, inhibitor, additives), and uncleaved gelatin was separated from degradation products by suction filtration through a nitrocellulose filter. High-molecular-weight gelatin is thereby bound to the nitrocellulose filter, and the low-molecular-weight gelatin-derived peptides pass through it. The nitrocellulose-bound gelatin can be stained with Ponceau S or Commassie Brilliant Blue protein stains, and the degree of staining quantified densitometrically using a commercially available electrophoresis gel documentation system supported by dedicated analytical software. The nitrocellulose filtration is conducted using a commercially available dot- or slot-blotting apparatus.
The gelatinase assay described here has been validated by comparison with results obtained with an established collagenase assay using radioactive or fluorescently labeled collagen as substrate.
(§1) The enzymatic cleavage of commercially available synthetic internally quenched fluorigenic peptide substrates such as 7-methylcoumarin-4-yl-acetyl-prolyleucyl-glycyl-leucyl-(dinitrophenyl-L-α,β-diaminopropionyl)-alanyl-arginylamide (Mca-Pro-Leu-Gly-Leu-Dap(Dnp)-Ala-Arg-NH2) at the scissile -Gly-Leu-peptide bond separates the fluorescent Mca group from the dinitrophenol quencher, resulting in a strong linear increase in fluorescence intensity that can be readily measured in a fluorimeter (λexitation328 nm, λemission 393 nm) over the first few minutes of the reaction. The specificity of the assay for matrix metalloproteinases is provided by the type I collagen-derived sequence -Pro-Leu-Gly-Leu- in the synthetic substrate, as well as by the incubation conditions. To test the efficacy of the synthetic collagenase/MMP inhibitors, the residual enzymatic activity remaining after an incubation of enzyme plus different amounts of inhibitor is measured at a fixed enzyme and substrate concentration. For each inhibitor, three test series at different fixed substrate concentrations were carried out. From the time-dependent increase in fluorescence intensity measured, the velocity (v) of the enzymatic activity can be calculated as increase in arbitrary fluorescence intensity units per minute. The inhibition constant Ki is calculated graphically by the method of Dixon (1953) by plotting the reciprocal of the reaction velocity 1/v on the ordinate, and the inhibitor concentration on the abscissa. The x-intercept of the linear plot is defined as minus K1 value.
1984 μl assay buffer (100 mM Tris-HCl pH 7,5, 100 mM NaCl, 10 mM CaCl2, 0,05% Brij 35) • 2 μl inhibitor dissolved in DMSO, or DMSO alone as a solvent control • 4 μl enzyme (MMP-2, MMP-9, or the catalytic domain of MMP-8) • 10 μl Mca-Pro-Leu-Gly-Leu-Dap(Dnp)-Ala-Arg-NH2 in DMSO Method • 1. […]

Assay [2] concerns the target T2, catalytic domain of human matrix metalloproteinase-8 (MMP-8; neutrophil collagenase) (Homo sapiens, UniProt P22894).
T2 construct: express heterologously only the catalytic domain, rather than the entire MMP-8, in Escherichia coli; made in house; host or cells: Escherichia coli
The assay can be described thus: Inhibition of catalytic domain of human MMP-8, fluorimetric assay, Dixon plot. Type of assay: biochemical. The following applies: recombinant catalytic domain, Mca-Pro-Leu-Gly-Leu-Dap(Dnp)-Ala-Arg-NH2 substrate.
Text: The catalytic domain of MMP-8 was chosen as a further test enzyme because of its high stability and constitutive activity, obviating the need for enzymatic or chemical activation, which is a well-known source of error, e.g. the commonly used organomercurial compounds used to activate pro-MMPs may interfere in subsequent assays or affect the activity of the enzyme, leading to erroneous interpretation of results. The cloning strategy was designed to express heterologously only the catalytic domain, rather than the entire MMP-8, in Escherichia coli. With the so-constructed expressed catalytic domain, we obtained a stable enzymatically active, highly pure enzyme that is well suited for routine investigation of the efficacy of the synthetic inhibitors and provides highly reproducible test results.
The cloning and expression of the recombinant catalytic domain of MMP-8 follows the protocol developed by Schnierer et al. (Schnierer, S., Kleine, T., Gote, T., Hilleman, A., Knäuper, V., and Tschesche, H., 1993, The recombinant catalytic domain of human neutrophil collagenase lacks type I collagen substrate specificity, Biochem. Biophys. Res. Commun. 191, 319-326).
as §1
1984 μl assay buffer (100 mM Tris-HCl pH 7,5, 100 mM NaCl, 10 mM CaCl2, 0,05% Brij 35) • 2 μl inhibitor dissolved in DMSO, or DMSO alone as a solvent control • 4 μl enzyme (MMP-2, MMP-9, or the catalytic domain of MMP-8) • 10 μl Mca-Pro-Leu-Gly-Leu-Dap(Dnp)-Ala-Arg-NH2 in DMSO Method • 1. Incubate buffer, enzyme, and inhibitor for 5 min at room temperature, with stirring. • 2. Start the reaction by adding 10 μl substrate in DMSO • 3. Record the increase in fluorescence intensity over 2 min. Confirmation of the Inhibitory Activity by Protein Zymographic Analysis

T2 sequence (P22894 100-262 limits assumed): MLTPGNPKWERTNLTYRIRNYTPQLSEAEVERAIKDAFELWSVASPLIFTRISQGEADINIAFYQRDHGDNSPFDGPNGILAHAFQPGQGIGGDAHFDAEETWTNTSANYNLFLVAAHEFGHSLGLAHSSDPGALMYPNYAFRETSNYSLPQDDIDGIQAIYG

On to `CC(S)CCn1c(=O)[nH]c(=O)c2ccccc21` (racemic) [Example 3, (R,S)-1-(3-mercaptobut-1-yl)-chinazolin-2,4(1H,3H)-dione], for which, in assay [1], the IC50 was determined as 13.2 µM. The Ki in assay [2] stood at 38.5 µM.
For the compound `CC(CCS)n1c(=O)[nH]c2ccccc2c1=O` (racemic) [Example 18, (R,S)-3-[3-(1-methyl)-mercaptopropyl]-chinazolin-2,4(1H,3H)-dione], in assay [1], the IC50 worked out at 8.3 µM. The inhibition constant Ki in assay [2] amounted to 6 µM.
On the same counts, the results for `O=c1[nH]c(=O)n(CCCS)c2ccccc12` [Example 4, 1-(3-mercaptopropyl)-chinazolin-2,4(1H,3H)-dione] are 5 µM and 7 µM.
On the same counts, the results for `O=c1[nH]c(=O)n(CCS)c2ccccc12` [Example 5, 1-(2-mercaptoethyl)-chinazolin-2,4(1H,3H)-dione] are 61.3 µM and 70 µM.
`Cn1c(=O)c2ccccc2n(CCCS)c1=O` [Example 7, 1-(3-mercaptoprop-1-yl)-3-methyl-chinazolin-2,4(1H,3H)-dione]: the IC50 in assay [1] worked out at 6 µM. In addition, the “MMP-8 (Ki value)” value in assay [2] is recorded as “negative”.
With `O=c1[nH]c2ccccc2c(=O)n1CCCCS` [Example 12, 3-(4-mercaptobut-1-yl)-chinazolin-2,4(1H,3H)-dione], the IC50 in assay [1] turned out to be 8.3 µM. Moreover, the Ki in assay [2] is 11 µM.
In the case of `Cn1c(=O)c2sccc2n(CCCS)c1=O` [Example 14, 1-(3-mercaptoprop-1-yl)-3-methyl-thieno(3,2-d)-pyrimidin-2,4(1H,3H)-dione], the IC50 in assay [1] is 20 µM. Besides, the “MMP-8 (Ki value)” value in assay [2] is “negative”.
On the same counts, the results for `Cn1c(=O)c2sccc2n(CCS)c1=O` [Example 17, 1-(2-mercaptoethyl)-3-methyl-thieno[3,2-d]-pyrimidine-2,4(1H,3H)-dione] are 20 µM and “negative”.
